Patent US20230348456A1, “QUINAZOLINONES, PHARMACEUTICAL COMPOSITIONS CONTAINING THE SAME, AND METHODS OF USING THE SAME” (Repare Therapeutics Inc., priority 2022, published 2023)

Target: recombinant human Myt1 (Homo sapiens (Human), UniProt Q99640)
Assay: Myt1 enzymatic assay (ADP-Glo kinase assay)
Type: biochemical
Settings: recombinant human Myt1 18 nM, ATP 10 μM
Method: Detection of Myt1 kinase activity utilized a recombinant human Myt1 kinase assay measuring the hydrolysis of ATP using a commercially available ADP-Glo Assay (ADP-Glo™ Kinase Assay from Promega, 10 000 assays, #V9102). Briefly, 5 μL recombinant human Myt1 (full length PKMYT1 recombinant human protein expressed in insect cells from Thermo Fisher #A33387; ˜80% purity) was prepared in reaction buffer (70 mM HEPES, 3 mM MgCl2, 3 mM MnCl2, 50 μg/ml PEG 20000, 3 μM Na-orthovanadate, 1.2 mM DTT) and added to 384 well white polystyrene, flat bottom well, non-treated, microplate (Corning #3572). After this, 5 μL of compounds (diluted in reaction buffer to 0.5% DMSO) was added to the microplate and the plate was spun briefly and incubated at 22° C. for 15 minutes. Ultra-Pure Adenosine Triphosphate (ATP) solution (ADP-Glo kit from Promega) was diluted in reaction buffer and 5 μL was added to the microplate, spun down briefly and incubated for 60 minutes at 30° C. The final Myt1 enzyme concentration was 18 nM and the final ATP concentration was 10 μM. After the 60-minute incubation, 15 μL of ADP-Glo reagent was added and the plate was spun briefly and sealed and incubated in the dark for 40 minutes at 22° C. Following this, 30 μL of kinase detection reagent was added per well and the plate was spun briefly, sealed and incubated for 45-60 minutes at 22° C. in the dark. Luminescence was read using the Envision (250 ms integration). The IC50 and the % max inhibition were calculated for each inhibitor compound tested.

Chain of recombinant human Myt1 (Q99640 whole entry): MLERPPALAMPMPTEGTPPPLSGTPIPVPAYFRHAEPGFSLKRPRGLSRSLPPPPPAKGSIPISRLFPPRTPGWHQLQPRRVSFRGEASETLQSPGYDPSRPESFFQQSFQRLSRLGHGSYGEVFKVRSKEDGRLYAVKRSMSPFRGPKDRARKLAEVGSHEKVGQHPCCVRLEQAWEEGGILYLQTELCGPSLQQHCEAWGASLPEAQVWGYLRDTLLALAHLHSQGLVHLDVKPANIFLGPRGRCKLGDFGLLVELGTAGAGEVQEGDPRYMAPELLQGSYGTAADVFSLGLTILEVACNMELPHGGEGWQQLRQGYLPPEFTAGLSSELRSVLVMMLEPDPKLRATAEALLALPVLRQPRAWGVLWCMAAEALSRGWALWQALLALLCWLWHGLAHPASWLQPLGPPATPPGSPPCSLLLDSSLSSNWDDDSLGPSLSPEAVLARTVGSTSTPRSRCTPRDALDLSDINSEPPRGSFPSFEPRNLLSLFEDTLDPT

Row | SMILES | IC50 [nM]
1 | Cc1ccc(O)c(C)c1-c1cc(-c2cnn(C3CC3)c2)c2nc(-c3ccncc3)[nH]c(=O)c2c1N (atropisomer, axis not shown) [Compound 27] | 2
2 | Cc1ccc(O)c(C)c1-c1cc(C2CC2)c2nc(-c3ccncc3)[nH]c(=O)c2c1N (single isomer, unassigned) [Compound 22, 5-amino-8-cyclopropyl-6-(3-hydroxy-2,6-dimethyl-phenyl)-2-(4-pyridyl)-3H-quinazolin-4-one] | 3
3 | Nc1c(-c2cccc3[nH]ncc23)cc(-c2nccs2)c2nc(-c3ccccc3)[nH]c(=O)c12 [Compound 1, 5-amino-6-(1H-indazol-4-yl)-2-phenyl-8-(thiazol-2-yl)quinazolin-4(3H)-one] | 4
4 | Cc1ccc(-c2nc3c(-c4nccs4)cc(-c4cccc5[nH]ncc45)c(N)c3c(=O)[nH]2)cc1 [Compound 3] | 33
5 | N#Cc1ccc(-c2nc3c(-c4nccs4)cc(-c4cccc5[nH]ncc45)c(N)c3c(=O)[nH]2)cc1 [Compound 5] | 89
6 | Nc1c(-c2cccc3[nH]ncc23)cc(-c2nccs2)c2nc(-c3ccc(-c4ccccc4)cc3)[nH]c(=O)c12 [Compound 6] | > 2000
7 | Nc1c(-c2cccc3[nH]ncc23)cc(-c2nccs2)c2nc(C3CC3)[nH]c(=O)c12 [Compound 8] | 131
8 | Cc1nc2c(-c3nccs3)cc(-c3cccc4[nH]ncc34)c(N)c2c(=O)[nH]1 [Compound 9] | 47
9 | Nc1c(-c2cccc3[nH]ncc23)cc(-c2nccs2)c2nc(C3CCOCC3)[nH]c(=O)c12 [Compound 13] | 1410
10 | CS(=O)(=O)c1ccc(-c2nc3c(-c4nccs4)cc(-c4cccc5[nH]ncc45)c(N)c3c(=O)[nH]2)cc1 [Compound 14] | 6
11 | Nc1ccc(-c2nc3c(-c4nccs4)cc(-c4cccc5[nH]ncc45)c(N)c3c(=O)[nH]2)cc1 [Compound 16] | 54
12 | CC(=O)Nc1ccc(-c2nc3c(-c4nccs4)cc(-c4cccc5[nH]ncc45)c(N)c3c(=O)[nH]2)cc1 [Compound 17] | 78
13 | Cc1cccc(-c2nc3c(-c4nccs4)cc(-c4cccc5[nH]ncc45)c(N)c3c(=O)[nH]2)c1 [Compound 20] | 10
14 | N#Cc1cccc(-c2nc3c(-c4nccs4)cc(-c4cccc5[nH]ncc45)c(N)c3c(=O)[nH]2)c1 [Compound 21] | 6
15 | Nc1c(-c2cccc3[nH]ncc23)cc(-c2nccs2)c2nc[nH]c(=O)c12 [Compound 28] | 4
16 | Nc1c(-c2cccc3[nH]ncc23)cc(-c2nccs2)c2nc(-c3ccncc3)[nH]c(=O)c12 [Compound 33] | 9
17 | Nc1c(-c2cccc3[nH]ncc23)cc(-c2nccs2)c2nc(-c3cccnn3)[nH]c(=O)c12 [Compound 41] | 10

Row | SMILES | IC50 [nM]
18 | COCc1nc2c(-c3nccs3)cc(-c3cccc4[nH]ncc34)c(N)c2c(=O)[nH]1 [Compound 43] | 20
19 | Nc1c(-c2cccc3[nH]ncc23)cc(-c2nccs2)c2nc(Cc3ccccc3)[nH]c(=O)c12 [Compound 46] | > 2000
20 | Nc1c(-c2cccc3[nH]ncc23)cc(-c2ccc(F)cc2)c2nc[nH]c(=O)c12 [Compound 48, 5-amino-8-(4-fluorophenyl)-6-(1H-indazol-4-yl) quinazolin-4(3H)-one] | 30
21 | Nc1c(-c2cccc3[nH]ncc23)cc(-c2cccc(C(F)(F)F)c2)c2nc[nH]c(=O)c12 [Compound 49] | 990
22 | Nc1c(-c2cccc3[nH]ncc23)cc(-c2cccc(OCCN3CCOCC3)n2)c2nc(-c3ccncc3)[nH]c(=O)c12 [Compound 50, 5-amino-6-(1H-indazol-4-yl)-8-[6-(2-morpholinoethoxy)-2-pyridyl]-2-(4-pyridyl)-3H-quinazolin-4-one] | 2
23 | Cc1ccc2[nH]ncc2c1-c1cc(-c2ccnnc2)c2c(c1N)C(=O)NC2 [Compound 51] | 1230
24 | Nc1c(-c2cccc3[nH]ncc23)cc(-c2cccc(OCCN3CCOCC3)c2)c2nc(-c3ccncc3)[nH]c(=O)c12 [Compound 52] | 5
25 | Nc1c(-c2cccc3[nH]ncc23)cc(-c2cccc(OCCN3CCCC3)n2)c2nc(-c3ccncc3)[nH]c(=O)c12 [Compound 54] | 2
26 | Nc1c(-c2cccc3[nH]ncc23)cc(-c2cccc(OC[C@@H]3CCCO3)n2)c2nc(-c3ccncc3)[nH]c(=O)c12 [Compound 55] | 4
27 | CN1CC=C(c2cc(-c3cccc4[nH]ncc34)c(N)c3c(=O)[nH]c(-c4ccncc4)nc23)CC1 [Compound 56] | 7
28 | CC(=O)N1CC=C(c2cc(-c3cccc4[nH]ncc34)c(N)c3c(=O)[nH]c(-c4ccncc4)nc23)CC1 [Compound 57] | 2
29 | Nc1c(-c2cccc3[nH]ncc23)cc(-c2cnn(C3COC3)c2)c2nc(-c3ccncc3)[nH]c(=O)c12 [Compound 58] | 1
30 | CN1CCC(n2cc(-c3cc(-c4cccc5[nH]ncc45)c(N)c4c(=O)[nH]c(-c5ccncc5)nc34)cn2)CC1 [Compound 60] | 3
31 | Cn1ccc(-c2cc(-c3cccc4[nH]ncc34)c(N)c3c(=O)[nH]c(-c4ccncc4)nc23)n1 [Compound 61] | 2
32 | Cc1ccc2[nH]ncc2c1-c1cc(-c2ccc(F)cn2)c2c(c1N)C(=O)NC2 [Compound 62] | 539
33 | Cc1ccc2[nH]ncc2c1-c1cc(-c2nccs2)c2c(c1N)C(=O)NC2 [Compound 63] | 16

Further lines, results first:

Row | IC50 [nM] | SMILES
34 | 15 | Nc1c(-c2cccc3[nH]ncc23)cc(-c2nccs2)c2nc(-c3ccc(N4CCOCC4)nc3)[nH]c(=O)c12 [Compound 2]
35 | 5 | Nc1ccc(-c2nc3c(-c4nccs4)cc(-c4cccc5[nH]ncc45)c(N)c3c(=O)[nH]2)cn1 [Compound 4]
36 | 3 | Nc1c(-c2cccc3[nH]ncc23)cc(Br)c2nc(-c3ccc(N4CCNCC4)nc3)[nH]c(=O)c12 [Compound 10]
37 | 5 | Nc1c(-c2cccc3[nH]ncc23)cc(Br)c2nc(-c3ccc(N4CCN(C5CC5)C(=O)C4)nc3)[nH]c(=O)c12 [Compound 11]
38 | 9 | CN(C)c1ccc(-c2nc3c(Br)cc(-c4cccc5[nH]ncc45)c(N)c3c(=O)[nH]2)cn1 [Compound 12]
39 | 10 | Nc1c(-c2cccc3[nH]ncc23)cc(-c2nccs2)c2nc(-c3ccnc(N4CCOCC4)c3)[nH]c(=O)c12 [Compound 15, 5-amino-6-(1H-indazol-4-yl)-2-(2-morpholinopyridin-4-yl)-8-(thiazol-2-yl)quinazolin-4(3H)-one]
40 | 9 | Nc1c(-c2cccc3[nH]ncc23)cc(-c2nccs2)c2nc(-c3cccc(N4CCOCC4)c3)[nH]c(=O)c12 [Compound 18]
41 | 3 | Nc1c(-c2cccc3[nH]ncc23)cc(Br)c2nc(-c3ccc(NC4CCOC4)nc3)[nH]c(=O)c12 (stereo not drawn) [Compound 19]
42 | 4 | Nc1c(-c2cccc3[nH]ncc23)cc(Br)c2nc(-c3ccc(NCCN4CCCC4)nc3)[nH]c(=O)c12 [Compound 23]
43 | 10 | CN1CCN(c2ccc(-c3nc4c(Br)cc(-c5cccc6[nH]ncc56)c(N)c4c(=O)[nH]3)cn2)CC1 [Compound 24]
44 | 23 | Nc1c(-c2cccc3[nH]ncc23)cc(Br)c2nc(-c3ccc(N4CCOCC4)nc3)[nH]c(=O)c12 [Compound 25, 5-amino-8-bromo-6-(1H-indazol-4-yl)-2-(6-morpholinopyridin-3-yl)quinazolin-4(3H)-one 2,2,2-trifluoroacetate]
45 | 5 | Nc1c(-c2cccc3[nH]ncc23)cc(Br)c2nc(-c3ccc(N4CCN(C5CC5)CC4)nc3)[nH]c(=O)c12 [Compound 26]
46 | 3 | COCCNc1ccc(-c2nc3c(Br)cc(-c4cccc5[nH]ncc45)c(N)c3c(=O)[nH]2)cn1 [Compound 29]
47 | 15 | Nc1c(-c2cccc3[nH]ncc23)cc(-c2nccs2)c2nc(-c3ccnc(N4CCNCC4)c3)[nH]c(=O)c12 [Compound 31]
48 | 6 | Nc1c(-c2cccc3[nH]ncc23)cc(Br)c2nc(-c3ccc(N4CCC(C(=O)O)CC4)nc3)[nH]c(=O)c12 [Compound 32]
49 | 29 | Nc1c(-c2cccc3[nH]ncc23)cc(Br)c2nc(-c3ccc(NC4COC4)nc3)[nH]c(=O)c12 [Compound 35]
50 | 76 | Nc1c(-c2cccc3[nH]ncc23)cc(Br)c2nc(-c3ccc(N4CCN(CCO)CC4)nc3)[nH]c(=O)c12 [Compound 36]
51 | 11 | COCCNc1cc(-c2nc3c(Br)cc(-c4cccc5[nH]ncc45)c(N)c3c(=O)[nH]2)ccn1 [Compound 37]
52 | 10 | CN1CCN(c2cc(-c3nc4c(Br)cc(-c5cccc6[nH]ncc56)c(N)c4c(=O)[nH]3)ccn2)CC1 [Compound 38]
53 | 18 | Nc1c(-c2cccc3[nH]ncc23)cc(-c2nccs2)c2nc(-c3cccc(CN4CCOCC4)c3)[nH]c(=O)c12 [Compound 40]
54 | 11 | Nc1c(-c2cccc3[nH]ncc23)cc(Br)c2nc(-c3ccc(N4CCCCC4CO)nc3)[nH]c(=O)c12 (stereo not drawn) [Compound 44]
55 | 18 | Nc1c(-c2cccc3[nH]ncc23)cc(Br)c2nc(-c3ccc(N4CCC(O)CC4)nc3)[nH]c(=O)c12 [Compound 45]
56 | 11 | CC1(O)CCN(c2ccc(-c3nc4c(Br)cc(-c5cccc6[nH]ncc56)c(N)c4c(=O)[nH]3)cn2)CC1 [Compound 47]
57 | 3 | Nc1c(-c2cccc3[nH]ncc23)cc(C2=CCOCC2)c2nc(-c3ccncc3)[nH]c(=O)c12 [Compound 64]
